Legend:
Type in all cases: in vivo
[1] = system: Scirpus juncoides; assay: Herbicidal effect on paddy field weeds of post-emergence stage (Post), Test Example 2; details: one-leaf stage, 1000 g/ha as active ingredient, examined after 21 days
Text: (§1) Criteria for herbicidal efficacy (growth inhibiting degree) and phytotoxicity. • 5 . . . 100% herbicidal effect, phytotoxicity. • 4 . . . 90%-99% herbicidal effect, phytotoxicity. • 3 . . . 70%-89% herbicidal effect, phytotoxicity. • 2 . . . 40%-69% herbicidal effect, phytotoxicity. • 1 . . . 1%-39% herbicidal effect, phytotoxicity. • 0 . . . 0% herbicidal effect, phytotoxicity.
(§2) 75 cm^2 plastic pots were filled with the soil (clay loam). Seeds of Scirpus juncoides and Echinochloa crus-galli, paddy weeds, were planted, and they were covered with 75 cm^3 of soil mixed with seeds of Lindernia procumbens and then filled with water depth of 5 cm and they were brought up in a greenhouse. When the test plants were at one-leaf stage, predetermined effective dosage (1000 g/ha as an active ingredient) of formulations comprising a compound of the present invention as an active ingredient was applied to the pot water. Then, they were brought up in a greenhouse and the herbicidal efficacy was examined after 21 days from the treatment by comparing with the result of an untreated group according to the criteria of Test Example 1. In the table, “-” means that the test was not performed.

[2] = system: Lindernia procumbens; assay: as above; details: one-leaf stage, 1000 g/ha as active ingredient, examined after 21 days
Text: as §1, §2

[3] = system: Scirpus juncoides; assay: Herbicidal efficacy on paddy field weeds of pre-emergence stage (Pre), Test Example 1; details: 1000 g/ha as active ingredient, examined after 21 days
Protocol: (§3) 75 cm^2 plastic pots were filled with the soil (clay loam). Seeds of Scirpus juncoides, a paddy weed, were planted, and they were covered with 75 cm^3 of soil mixed with seeds of Lindernia procumbens and then filled with water depth of 5 cm. Next day, predetermined effective dosage (1000 g/ha as an active ingredient) of formulations comprising a compound of the present invention as an active ingredient which were prepared following Formulation Examples 1 to 4 was diluted with water and applied dropwise to the surface of the water. Then, they were brought up in a greenhouse and the herbicidal effect was examined after 21 days from the treatment by comparing with the result of an untreated group according to the following criteria. In the table, “-” means that the test was not performed.
as §1

[4] = system: Lindernia procumbens; assay: as above; details: 1000 g/ha as active ingredient, examined after 21 days
Protocol: as §3, §1

| Structure (SMILES) | Scirpus juncoides post (herbicidal effect) [1] | Lindernia procumbens post (herbicidal effect) [2] | Scirpus juncoides pre (herbicidal effect) [3] | Lindernia procumbens pre (herbicidal effect) [4] |
| --- | --- | --- | --- | --- |
| CCC1(CC(C)C)CCN(Cc2ccccc2N(C(=O)OCC(C)(C)C)S(=O)(=O)C(F)(F)F)C(=O)O1 (racemic) [Compound 1-423] | 4 (90%-99% herbicidal effect, phytotoxicity) | 5 (100% herbicidal effect, phytotoxicity) | 4 (90%-99% herbicidal effect, phytotoxicity) | 5 (100% herbicidal effect, phytotoxicity) |
| CC1(c2ccccc2F)CCN(Cc2ccccc2NS(=O)(=O)C(F)(F)F)C(=O)O1 (racemic) [Compound 1-428] | 4 (90%-99% herbicidal effect, phytotoxicity) | 5 (100% herbicidal effect, phytotoxicity) | 5 (100% herbicidal effect, phytotoxicity) | 5 (100% herbicidal effect, phytotoxicity) |
| CN(c1ccccc1CN1CCC(C)(C)OC1=O)S(=O)(=O)C(F)(F)F [Compound 1-54] | 4 (90%-99% herbicidal effect, phytotoxicity) | – | 4 (90%-99% herbicidal effect, phytotoxicity) | – |
| CN(c1ccccc1CN1CCC2(CCCC2)OC1=O)S(=O)(=O)C(F)(F)F [Compound 1-145] | 4 (90%-99% herbicidal effect, phytotoxicity) | – | 4 (90%-99% herbicidal effect, phytotoxicity) | – |
| CC(C)COC(=O)N(c1ccccc1CN1CCC(C2CC2)(C2CC2)OC1=O)S(=O)(=O)C(F)(F)F [Compound 1-154] | – | – | – | 4 (90%-99% herbicidal effect, phytotoxicity) |
| CC(C)COC(=O)N(c1ccccc1CN1CCC(C)(c2ccccc2)OC1=O)S(=O)(=O)C(F)(F)F (centres unmarked) [Compound 1-165] | 4 (90%-99% herbicidal effect, phytotoxicity) | – | 4 (90%-99% herbicidal effect, phytotoxicity) | 4 (90%-99% herbicidal effect, phytotoxicity) |
| CN(c1ccccc1CN1CCC(C)(c2ccccc2)OC1=O)S(=O)(=O)C(F)(F)F (centres unmarked) [Compound 1-167] | – | – | 4 (90%-99% herbicidal effect, phytotoxicity) | – |
| CN(c1ccccc1CN1CCC(c2ccccc2)(c2ccccc2)OC1=O)S(=O)(=O)C(F)(F)F [Compound 1-224] | – | – | – | 4 (90%-99% herbicidal effect, phytotoxicity) |
| CC(C)COC(=O)N(c1ccccc1CN1CCC(c2ccccc2)OC1=O)S(=O)(=O)C(F)(F)F (centres unmarked) [Compound 1-244] | – | 5 (100% herbicidal effect, phytotoxicity) | – | 5 (100% herbicidal effect, phytotoxicity) |
| CN(c1ccccc1CN1CCC(c2ccccc2)OC1=O)S(=O)(=O)C(F)(F)F (centres unmarked) [Compound 1-246] | – | – | – | 5 (100% herbicidal effect, phytotoxicity) |
| CC(C)COC(=O)N(c1ccccc1CN1CCC(c2ccccc2F)OC1=O)S(=O)(=O)C(F)(F)F (centres unmarked) [Compound 1-255] | – | 5 (100% herbicidal effect, phytotoxicity) | – | 5 (100% herbicidal effect, phytotoxicity) |
| CN(c1ccccc1CN1CCC(c2ccccc2F)OC1=O)S(=O)(=O)C(F)(F)F (centres unmarked) [Compound 1-257] | – | 5 (100% herbicidal effect, phytotoxicity) | 4 (90%-99% herbicidal effect, phytotoxicity) | 5 (100% herbicidal effect, phytotoxicity) |
| CCOCN(c1ccccc1CN1CC(C)(C)C(c2ccccc2)OC1=O)S(=O)(=O)C(F)(F)F (centres unmarked) [Compound 1-270] | 4 (90%-99% herbicidal effect, phytotoxicity) | 5 (100% herbicidal effect, phytotoxicity) | – | 5 (100% herbicidal effect, phytotoxicity) |
| CN(c1ccccc1CN1CCC(c2c(Cl)cccc2Cl)OC1=O)S(=O)(=O)C(F)(F)F (centres unmarked) [Compound 1-279] | 4 (90%-99% herbicidal effect, phytotoxicity) | 5 (100% herbicidal effect, phytotoxicity) | – | 5 (100% herbicidal effect, phytotoxicity) |
| CCOCN(c1ccccc1CN1CCC(c2c(Cl)cccc2Cl)OC1=O)S(=O)(=O)C(F)(F)F (centres unmarked) [Compound 1-281] | 4 (90%-99% herbicidal effect, phytotoxicity) | 5 (100% herbicidal effect, phytotoxicity) | – | 5 (100% herbicidal effect, phytotoxicity) |
| Cc1ccccc1C1CCN(Cc2ccccc2N(C)S(=O)(=O)C(F)(F)F)C(=O)O1 (centres unmarked) [Compound 1-290] | 4 (90%-99% herbicidal effect, phytotoxicity) | 5 (100% herbicidal effect, phytotoxicity) | – | 5 (100% herbicidal effect, phytotoxicity) |
| CN(c1ccccc1CN1CCC(c2ccccc2C(F)(F)F)OC1=O)S(=O)(=O)C(F)(F)F (centres unmarked) [Compound 1-301] | – | 5 (100% herbicidal effect, phytotoxicity) | – | 5 (100% herbicidal effect, phytotoxicity) |
| CN(c1ccccc1CN1CCC(c2ccccc2Cl)OC1=O)S(=O)(=O)C(F)(F)F (centres unmarked) [Compound 1-312] | – | 5 (100% herbicidal effect, phytotoxicity) | – | 5 (100% herbicidal effect, phytotoxicity) |
| CCOCN(c1ccccc1CN1CCC(c2ccccc2Cl)OC1=O)S(=O)(=O)C(F)(F)F (centres unmarked) [Compound 1-314] | – | 5 (100% herbicidal effect, phytotoxicity) | 4 (90%-99% herbicidal effect, phytotoxicity) | 5 (100% herbicidal effect, phytotoxicity) |
| CCC1(c2ccccc2)CCN(Cc2ccccc2N(C)S(=O)(=O)C(F)(F)F)C(=O)O1 (centres unmarked) [Compound 1-323] | – | 5 (100% herbicidal effect, phytotoxicity) | – | 5 (100% herbicidal effect, phytotoxicity) |
| O=C1OC(c2c(F)cccc2F)CCN1Cc1ccccc1NS(=O)(=O)C(F)(F)F (centres unmarked) [Compound 1-349] | – | 5 (100% herbicidal effect, phytotoxicity) | 5 (100% herbicidal effect, phytotoxicity) | 5 (100% herbicidal effect, phytotoxicity) |
| CCOCN(c1ccccc1CN1CCC(c2c(C)cccc2C)OC1=O)S(=O)(=O)C(F)(F)F (centres unmarked) [Compound 1-369] | 4 (90%-99% herbicidal effect, phytotoxicity) | 5 (100% herbicidal effect, phytotoxicity) | – | 5 (100% herbicidal effect, phytotoxicity) |
| O=C1OCCCN1Cc1ccccc1NS(=O)(=O)C(F)(F)F [Compound No. 1-1, 3-[2-(trifluoromethanesulfonylamino)benzyl]-[1,3]-oxazinan-2-one] | 4 (90%-99% herbicidal effect, phytotoxicity) | – | 4 (90%-99% herbicidal effect, phytotoxicity) | 4 (90%-99% herbicidal effect, phytotoxicity) |
| CC1CCN(Cc2ccccc2NS(=O)(=O)C(F)(F)F)C(=O)OC1 (centres unmarked) [Compound No. 2-23, 6-methyl-3-[2-(trifluoromethanesulfonylamino)benzyl]-[1,3]-oxazepan-2-one] | 4 (90%-99% herbicidal effect, phytotoxicity) | – | 4 (90%-99% herbicidal effect, phytotoxicity) | 4 (90%-99% herbicidal effect, phytotoxicity) |

From patent publication US8048825B2, “Haloalkylsulfonanilide derivatives or salt thereof, herbicide comprising the derivatives as active ingredient, and use of the herbicide” (Nihon Nohyaku Co., Ltd., priority 2006, dated 2011)
